For test [1], the target named is GDP-bound HRAS wild-type protein (Homo sapiens, UniProt P01112). Description: Binding to HRAS by surface plasmon resonance (SPR), Single Cycle Kinetics. (In general: In SPR one partner is held on a chip, and binding of the other changes the refractive index at the surface.)
The subject of test [2] is human lung cancer strain NCI-H441.
Test [3] addresses GDP-bound NRAS wild-type protein (Homo sapiens, UniProt P01111). Description: Binding to NRAS by surface plasmon resonance (SPR), Single Cycle Kinetics.
[4] abbreviates: GDP-bound HRAS wild-type vs GDP-bound KRAS wild-type, SPR.
The mark [5] stands for this setting: GDP-bound NRAS wild-type vs GDP-bound KRAS wild-type, SPR.
Where [6] appears, read: read-out: NCI-H441 IC50, NCI-H441 cells, 4 days, CellTiter-Glo.
Setting [7] is: SPR, GDP-bound wild-type proteins.

12 compounds from US20250230193A1, “CYCLIC COMPOUND HAVING SELECTIVE KRAS INHIBITORY EFFECT ON HRAS AND NRAS” (CHUGAI SEIYAKU KABUSHIKI KAISHA, priority 2022, published 2025) can be followed below.

Like-named read-outs stand apart in the source and are kept apart here.

GDP-bound NRAS wild-type protein, sequence (P01111 whole entry): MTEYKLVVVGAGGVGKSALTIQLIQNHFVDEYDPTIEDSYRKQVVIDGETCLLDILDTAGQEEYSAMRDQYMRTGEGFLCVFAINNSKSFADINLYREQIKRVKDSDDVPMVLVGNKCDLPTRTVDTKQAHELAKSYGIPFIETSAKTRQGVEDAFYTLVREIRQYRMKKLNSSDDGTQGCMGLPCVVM
GDP-bound HRAS wild-type protein, sequence (P01112 whole entry): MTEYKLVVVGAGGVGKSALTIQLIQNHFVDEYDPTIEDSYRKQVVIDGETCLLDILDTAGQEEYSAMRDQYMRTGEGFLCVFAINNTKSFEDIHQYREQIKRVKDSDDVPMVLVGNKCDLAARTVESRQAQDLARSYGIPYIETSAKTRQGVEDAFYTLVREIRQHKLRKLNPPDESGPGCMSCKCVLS

For the compound `CCO[C@@H]1C[C@H]2C(=O)NC3(CC(C)(C)C3)C(=O)N(C)[C@@H](C3CCCC3)C(=O)N(C)[C@H](C(=O)N(C)CC)CC(=O)N(C)[C@@H](CC3CC3)C(=O)N[C@@H]([C@@H](C)CC)C(=O)N(C)CC(=O)N(C)[C@H]3C/C=C\CCN(C3=O)[C@@H](Cc3ccc(C(F)(F)F)cc3)C(=O)N(C)CC(=O)N[C@@H](CCc3ccc(C(F)(F)F)c(OC)c3)C(=O)N2C1` [PP1678], the “HRAS/KRAS (ratio of KD value for HRAS to KD value for KRAS)” value in test [1] (setting [4]) is “B (a compound having 3 or more and less than 10 is denoted as B)”. In test [2], inhibition was half-maximal at 5.6 nM (IC50). For the same compound, the “NRAS/KRAS (ratio of KD value for NRAS to KD value for KRAS)” value in test [3] (setting [5]) was “A (a compound having 10 or more and less than 20 is denoted as A)”.

For the compound `CCCN(C)C(=O)[C@@H]1CC(=O)N(C)[C@@H](COC)C(=O)N[C@@H]([C@@H](C)CC)C(=O)N(C)CC(=O)N(C)[C@H]2C/C=C\CCN(C2=O)[C@@H](Cc2ccc(C(F)(F)F)cc2)C(=O)N(C)CC(=O)N[C@@H](CCc2cc(F)c(C(F)(F)F)c(F)c2)C(=O)N2C[C@H](OCC)C[C@H]2C(=O)NC2(CCC2)C(=O)N(C)[C@@H](C2CCCC2)C(=O)N1C` [PP1706], the “HRAS/KRAS (ratio of KD value for HRAS to KD value for KRAS)” value in test [1] (setting [4]) was “A (a compound having 10 or more and less than 20 is denoted as A)”. Besides, half-maximal inhibition in test [2] (IC50) was put at 6.7 nM. Moreover, the “NRAS/KRAS (ratio of KD value for NRAS to KD value for KRAS)” value in test [3] (setting [5]) was “A (a compound having 10 or more and less than 20 is denoted as A)”.

`CC[C@H](C)[C@@H]1NC(=O)[C@H](C2CC2)N(C)C(=O)C[C@@H](C(=O)N(C)C)N(C)C(=O)[C@H](C2CCCC2)N(C)C(=O)C2(CCCC2)N(C)C(=O)[C@@H]2CCCN2C(=O)[C@H](CCc2cc(F)c(C(F)(F)F)c(F)c2)NC(=O)CN(C)C(=O)[C@H](Cc2ccc(C)cc2)N2CC/C=C\C[C@@H](C2=O)N(C)C(=O)CN(C)C1=O` [PP1809]: in test [1] (setting [4]), the “HRAS/KRAS (ratio of KD value for HRAS to KD value for KRAS)” value is “B (a compound having 3 or more and less than 10 is denoted as B)”. Besides, inhibition in test [2] was half-maximal at 22.4 nM (IC50). The “NRAS/KRAS (ratio of KD value for NRAS to KD value for KRAS)” value in test [3] (setting [5]) is “A (a compound having 10 or more and less than 20 is denoted as A)”.

Turning to `CC[C@H](C)[C@@H]1NC(=O)[C@H](CC)N(C)C(=O)C[C@@H](C(=O)N(C)CC)N(C)C(=O)[C@H](C2CCCC2)N(C)C(=O)C2(CC(C)(C)C2)NC(=O)[C@@H]2C[C@H](C)CN2C(=O)[C@H](CCc2ccc(C(F)(F)F)c(OC)c2)NC(=O)CN(C)C(=O)[C@H](Cc2ccc(C)cc2)N2CC/C=C\C[C@@H](C2=O)N(C)C(=O)CN(C)C1=O` [PP1868], the “HRAS/KRAS (ratio of KD value for HRAS to KD value for KRAS)” value in test [1] (setting [4]) is “B (a compound having 3 or more and less than 10 is denoted as B)”. Moreover, the IC50 – broadly, the concentration at which inhibition is half-maximal – in test [2] worked out at 10.7 nM. Moreover, the “NRAS/KRAS (ratio of KD value for NRAS to KD value for KRAS)” value in test [3] (setting [5]) was “A (a compound having 10 or more and less than 20 is denoted as A)”.

As for `CCO[C@@H]1C[C@H]2C(=O)NC3(CC(C)(C)C3)C(=O)N(C)[C@@H](C3CCCC3)C(=O)N(C)[C@H](C(=O)N(C)C)CC(=O)N(C)[C@@H](CC)C(=O)N[C@@H]([C@@H](C)CC)C(=O)N(C)CC(=O)N(C)[C@H]3C/C=C\CCN(C3=O)[C@@H](Cc3ccc(C)cc3)C(=O)N(C)CC(=O)N[C@@H](CCc3ccc(C(F)(F)F)c(Cl)c3)C(=O)N2C1` [PP1878], the “HRAS/KRAS (ratio of KD value for HRAS to KD value for KRAS)” value in test [1] (setting [4]) was “A (a compound having 10 or more and less than 20 is denoted as A)”. In test [2], the IC50 turned out to be 8.8 nM. The “NRAS/KRAS (ratio of KD value for NRAS to KD value for KRAS)” value in test [3] (setting [5]) is “A (a compound having 10 or more and less than 20 is denoted as A)”.

As to `CC[C@H](C)[C@@H]1NC(=O)[C@H](CC(C)C)N(C)C(=O)C[C@@H](C(=O)N(C)C)N(C)C(=O)[C@H](C2CCCC2)N(C)C(=O)C2(CC(C)(C)C2)NC(=O)[C@@H]2C[C@H](C)CN2C(=O)[C@H](CCc2ccc(C(F)(F)F)c(OC)c2)NC(=O)CN(C)C(=O)[C@H](Cc2ccc(C)cc2)N2CC/C=C\C[C@@H](C2=O)N(C)C(=O)CN(C)C1=O` [PP1905], the “HRAS/KRAS (ratio of KD value for HRAS to KD value for KRAS)” value in test [1] (setting [4]) was “A (a compound having 10 or more and less than 20 is denoted as A)”. Besides, in test [2], 6.7 nM corresponded to half-maximal inhibition (IC50). For the same compound, the “NRAS/KRAS (ratio of KD value for NRAS to KD value for KRAS)” value in test [3] (setting [5]) is “A (a compound having 10 or more and less than 20 is denoted as A)”.

Turning to `CC[C@H](C)[C@@H]1NC(=O)[C@H](CC(C)C)N(C)C(=O)C[C@@H](C(=O)N(C)C)N(C)C(=O)[C@H](C2CCCC2)N(C)C(=O)C2(CC(C)(C)C2)NC(=O)[C@@H]2C[C@@H](C)CN2C(=O)[C@H](CCc2ccc(C(F)(F)F)c(OC)c2)NC(=O)CN(C)C(=O)[C@H](Cc2ccc(C)cc2)N2CC/C=C\C[C@@H](C2=O)N(C)C(=O)CN(C)C1=O` [PP1908], in test [1] (setting [4]), the “HRAS/KRAS (ratio of KD value for HRAS to KD value for KRAS)” value is “B (a compound having 3 or more and less than 10 is denoted as B)”. The compound further had a half-maximal inhibitory concentration (IC50) in test [2] of 10.1 nM. The “NRAS/KRAS (ratio of KD value for NRAS to KD value for KRAS)” value in test [3] (setting [5]) is “A (a compound having 10 or more and less than 20 is denoted as A)”.

Consider `CC[C@H](C)[C@@H]1NC(=O)[C@H](CC(C)C)N(C)C(=O)C[C@@H](C(=O)N(C)CC)N(C)C(=O)[C@H](C2CCCC2)N(C)C(=O)C2(CC(C)(C)C2)NC(=O)[C@@H]2C[C@@H](C)CN2C(=O)[C@H](CCc2ccc(C(F)(F)F)c(OC)c2)NC(=O)CN(C)C(=O)[C@H](Cc2ccc(C)cc2)N2CC/C=C\C[C@@H](C2=O)N(C)C(=O)CN(C)C1=O` [PP1909], for which, in test [1] (setting [4]), the “HRAS/KRAS (ratio of KD value for HRAS to KD value for KRAS)” value is “B (a compound having 3 or more and less than 10 is denoted as B)”. Further, in test [2], the IC50 worked out at 15.3 nM. Besides, the “NRAS/KRAS (ratio of KD value for NRAS to KD value for KRAS)” value in test [3] (setting [5]) was “A (a compound having 10 or more and less than 20 is denoted as A)”.

Regarding `CCO[C@@H]1C[C@H]2C(=O)NC3(CCC3)C(=O)N(C)[C@@H](C3CCCC3)C(=O)N(C)[C@H](C(=O)N(C)CC)CC(=O)N(C)[C@H]3CCCCCc4ccc(cc4)C[C@@H](C(=O)N(C)CC(=O)N[C@@H](CCc4cc(F)c(C(F)(F)F)c(F)c4)C(=O)N2C1)N1CC/C=C\C[C@@H](C1=O)N(C)C(=O)CN(C)C(=O)[C@H]([C@@H](C)CC)NC3=O` [PP2117], the “HRAS/KRAS (ratio of KD value with respect to HRAS to KD value with respect to KRAS)” value in test [1] (SPR, GDP-bound HRAS wild-type vs GDP-bound KRAS wild-type) is “A (a compound having 10 or more and less than 20 is denoted as A)”. The IC50 in test [2] was 28.9 nM. Moreover, in test [3] (SPR, GDP-bound NRAS wild-type vs GDP-bound KRAS wild-type), the “NRAS/KRAS (ratio of KD value with respect to NRAS to KD value with respect to KRAS)” value is “A (a compound having 10 or more and less than 20 is denoted as A)”.

On to `CCC[C@H]1C(=O)N[C@@H]([C@@H](C)CC)C(=O)N(C)CC(=O)N(C)[C@H]2C/C=C\CCN(C2=O)[C@@H](Cc2ccc(C(F)(F)F)cc2)C(=O)N(C)CC(=O)N[C@@H](CCc2cc(Cl)c3c(ccn3C)c2)C(=O)N2C[C@H](OCC)C[C@H]2C(=O)NC2(CC(C)(C)C2)C(=O)N(C)[C@@H](C(CC)CC)C(=O)N(C)[C@H](C(=O)N(C)C)CC(=O)N1C` [PP2896], for which, in test [1] (class symbols), the “HRAS/KRAS (ratio of KD value with respect to GDP-bound HRAS wild-type protein to KD value with respect to KRAS)” value was “A (a compound having 10 or more and less than 20 is denoted as A)”. In addition, in test [2] (setting [6]), the IC50 was determined as 79.3 nM. In addition, in test [3] (class symbols), the “NRAS/KRAS (ratio of KD value with respect to GDP-bound NRAS wild-type protein to KD value with respect to KRAS)” value was “A (a compound having 10 or more and less than 20 is denoted as A)”.

On to `CCC(CC)[C@H]1C(=O)N(C)[C@H](C(=O)N2CCCCC2)CC(=O)N(C)[C@H]2CCC/C=C/c3ccc(cc3)C[C@@H](C(=O)N(C)CC(=O)N[C@@H](CCc3ccc(Cl)c(Cl)c3)C(=O)N3CCC[C@H]3C(=O)NC3(CC(C)(C)C3)C(=O)N1C)N1CC/C=C\C[C@@H](C1=O)N(C)C(=O)CN(C)C(=O)[C@H]([C@@H](C)CC)NC2=O` [PP3055], for which, in test [1] (setting [7]), the “HRAS/KRAS (ratio of KD value with respect to GDP-bound HRAS wild-type protein to KD value with respect to KRAS)” value was “A (a compound having 10 or more and less than 20 is denoted as A)”. In addition, the IC50 in test [2] (setting [6]) is 69.2 nM. Moreover, in test [3] (setting [7]), the “NRAS/KRAS (ratio of KD value with respect to GDP-bound NRAS wild-type protein to KD value with respect to KRAS)” value is given as “AA (a compound having 20 or more is denoted as AA)”.

As to `CCO[C@@H]1C[C@H]2C(=O)NC3(CC(C)(C)C3)C(=O)N(C)[C@@H](C3CCCC3)C(=O)N(C)[C@H](C(=O)N3CCCCC3)CC(=O)N(C)[C@H]3CCCCc4ccc(cc4)C[C@@H](C(=O)N(C)CC(=O)N[C@@H](CCc4ccc(C(F)(F)F)c(OC)c4)C(=O)N2C1)N1CC/C=C\C[C@@H](C1=O)N(C)C(=O)CN(C)C(=O)[C@H]([C@@H](C)CC)NC3=O` [PP3093, (1S,7S,11R,13S,19S,22S,26S,29S,35S,37Z)-19-cyclopentyl-11-ethoxy-7-[2-[3-methoxy-4-(trifluoromethyl)phenyl]ethyl]-3,3′,3′,18,21,25,31,34-octamethyl-29-[(1S)-1-methylpropyl]-22-(piperidine-1-carbonyl)spiro[3,6,9,15,18,21,25,28,31,34,41-undecazapentacyclo[24.15.9.2^43,46.1^35,41.0^9,13]tripentaconta-37,43(52),44,46(51)-tetraene-16,1′-cyclobutane]-2,5,8,14,17,20,24,27,30,33,53-undecone], the “HRAS/KRAS (ratio of KD value with respect to GDP-bound HRAS wild-type protein to KD value with respect to KRAS)” value in test [1] (setting [7]) is “A (a compound having 10 or more and less than 20 is denoted as A)”. For the same compound, in test [2] (setting [6]), the IC50 came out at 3.2 nM. For the same compound, the “NRAS/KRAS (ratio of KD value with respect to GDP-bound NRAS wild-type protein to KD value with respect to KRAS)” value in test [3] (setting [7]) was “A (a compound having 10 or more and less than 20 is denoted as A)”.
